This assay addresses T1, Full length human TNNI3K (hTNNI3K) (Homo sapiens, UniProt Q59H18).
T1 construct: His-MBP-TEV-Full length human TNNI3K (hTNNI3K); His (N); MBP (N); TEV cleavage site (N); made in house; host or cells: baculovirus system (printed 'Baculokinase system')
T1 sequence (Q59H18 1-835): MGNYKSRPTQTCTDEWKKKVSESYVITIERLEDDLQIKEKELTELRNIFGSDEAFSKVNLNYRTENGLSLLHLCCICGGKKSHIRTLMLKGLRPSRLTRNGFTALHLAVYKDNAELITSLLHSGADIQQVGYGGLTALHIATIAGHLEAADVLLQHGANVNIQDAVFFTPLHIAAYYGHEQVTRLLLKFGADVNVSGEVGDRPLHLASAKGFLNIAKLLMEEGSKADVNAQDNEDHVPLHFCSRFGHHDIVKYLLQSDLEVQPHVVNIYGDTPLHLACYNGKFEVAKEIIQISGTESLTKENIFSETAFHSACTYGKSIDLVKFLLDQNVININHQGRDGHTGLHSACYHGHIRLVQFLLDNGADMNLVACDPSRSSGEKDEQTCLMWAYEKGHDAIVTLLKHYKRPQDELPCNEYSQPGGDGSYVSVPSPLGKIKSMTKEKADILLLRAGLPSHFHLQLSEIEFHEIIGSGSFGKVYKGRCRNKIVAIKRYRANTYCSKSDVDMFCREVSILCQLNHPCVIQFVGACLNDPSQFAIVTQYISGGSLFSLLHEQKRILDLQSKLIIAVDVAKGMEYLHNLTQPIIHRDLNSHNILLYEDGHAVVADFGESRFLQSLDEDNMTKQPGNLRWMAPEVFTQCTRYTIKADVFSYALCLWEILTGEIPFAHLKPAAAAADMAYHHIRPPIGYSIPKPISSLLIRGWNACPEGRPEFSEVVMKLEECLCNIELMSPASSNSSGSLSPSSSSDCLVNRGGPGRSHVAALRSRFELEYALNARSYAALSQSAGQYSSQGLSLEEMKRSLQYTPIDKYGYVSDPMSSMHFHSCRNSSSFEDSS
Put plainly: Fluorescent polarization assay of compound inhibition on hTNNI3K ATP binding (Biological Assay Method I). As to conditions: displacement of fluorescent ligand from hTNNI3K ATP binding pocket; mean of a minimum of 2 experiments; read-out: pXC50 (the source's name) (converted). An excerpt:
Materials: His-MBP-TEV-Full length human TNNI3K (hTNNI3K) was expressed in Baculokinase system and purified from amylase affinity column followed by Superdex200. The fluorescent ligand 5-({[2-({[3-({4-[(5-hydroxy-2-methylphenyl)amino]-2-pyrimidinyl}amino)phenyl]carbonyl}amino)ethyl]amino}carbonyl)-2-(6-hydroxy-3-oxo-3H-xanthen-9-yl)benzoic acid was used. The preparation of this fluorescent ligand is disclosed in U.S. Provisional Patent Application No. 61/237,815 filed Aug. 28, 2009, the disclosure of which is incorporated by reference herein. The other buffer components, including MgCl2 (Catalog Number M1028), Bis-Tris (Catalog Number B7535), DTT (Catalog Number D9779) and Chaps (Catalog Number C3023) were purchased from Sigma-Aldrich.
Biological Assay Method I:
A fluorescent polarization assay was used to determine does response of compound inhibition on hTNNI3K ATP binding.
Solution 1: Ten (10) mL of a 5 nM 5-({[2-({[3-({4-[(5-hydroxy-2-methylphenyl)amino]-2-pyrimidinyl}amino)phenyl]carbonyl}amino)ethyl]amino}carbonyl)-2-(6-hydroxy-3-oxo-3H-xanthen-9-yl)benzoic acid solution (Solution 1) was prepared by mixing 5 μL of 1M DTT and 80 μL of 10% (w/v) Chaps and 5 μL of a 10 μM 5-({[2-({[3-({4-[(5-hydroxy-2-methylphenyl)amino]-2-pyrimidinyl}amino)phenyl]carbonyl}amino) ethyl]amino}carbonyl)-2-(6-hydroxy-3-oxo-3H-xanthen-9-yl)benzoic acid stock solution into 9910 μL buffer (20 mM Tris, 15 mM MgCl2, pH 7.5). (Stock solution: 10 μM solution of 5-({[2-({[3-({4-[(5-hydroxy-2-methylphenyl)amino]-2-pyrimidinyl}amino)phenyl]carbonyl}amino)ethyl]amino}carbonyl)-2-(6-hydroxy-3-oxo-3H-xanthen-9-yl)benzoic acid in 100% DMSO)
Solution 2 was formed by mixing 53.8 μL of 2.6 μM hTNNI3K with a 6946.2 μL aliquot of Solution 1 (the above 5-({[2-({[3-({4-[(5-hydroxy-2-methylphenyl)amino]-2-pyrimidinyl}amino)phenyl]carbonyl}amino)ethyl]amino}carbonyl)-2-(6-hydroxy-3-oxo-3H-xanthen-9-yl)benzoic acid solution) to make up a 7 mL of mixture of hTNNI3K and 5-({[2-({[3-({4-[(5-hydroxy-2-methylphenyl)amino]-2-pyrimidinyl}amino)phenyl]carbonyl}amino)ethyl]amino}carbonyl)-2-(6-hydroxy-3-oxo-3H-xanthen-9-yl)benzoic acid (Solution 2).
Fifty (50) nL of inhibitors in DMSO (or DMSO controls) were stamped into a 384-well low volume Greiner black plate, followed by addition of 5 μL of Solution 1 to column 18 and 5 μL Solution 2 to columns 1-17 and 19-24 of the plate. The plate was then spun at 500 rpm for 30 seconds and incubated at room temperature for 60 minutes. After that, the fluorescent polarization was measured on Analyst (ex/em: 485/530 nm, Dichroic: 505). For dose response experiments, normalized data were fit by ABASE/XC50 and pXC50=(log((b−y)/(y−a)))/d−log(x), where x is the compound concentration and y is the % activity at specified compound concentration, a is the minimum % activity, b is the maximum % activity, and d is the Hill slope.
The pXC50s are averaged to determine a mean value, for a minimum of 2 experiments.

Where a name gives a salt, the structure may show the parent alone.

As for `CNS(=O)(=O)c1ccc(N(C)C)c(Nc2ncnc3cc(OC)cc(OC)c23)c1` [Example 32, 3-{[5,7-bis(methyloxy)-4-quinazolinyl]amino}-4-(dimethylamino)-N-methylbenzenesulfonamide], the IC50 is 1 to 10 nM. With `CNS(=O)(=O)c1ccc(N(C)CC(F)(F)F)c(Nc2ncnc3cc(OC)c(OC)cc23)c1` [Example 35, 3-{[6,7-bis(methyloxy)-4-quinazolinyl]amino}-N-methyl-4-[methyl(2,2,2-trifluoroethyl)amino] benzenesulfonamide trifluoroacetate] the figure was 1 to 10 nM; with `CNS(=O)(=O)c1ccc(N(C)CC(F)(F)F)c(Nc2ncnc3cc(OC)cc(OC)c23)c1` [Example 36, 3-{[5,7-bis(methyloxy)-4-quinazolinyl]amino}-N-methyl-4-[methyl(2,2,2-trifluoroethyl)amino] benzenesulfonamide hydrochloride], 10 to 100 nM.

As for `CNS(=O)(=O)c1ccc(OC)c(Nc2ncnc3cc(OC)cc(OC)c23)c1` [Example 37, 3-{[5,7-bis(methyloxy)-4-quinazolinyl]amino}-N-methyl-4-(methyloxy) benzenesulfonamide hydrochloride], the IC50 was 1 to 10 nM. With `CNS(=O)(=O)c1ccc(F)c(Nc2ncnc3cc(OC)cc(OC)c23)c1` [Example 38, 3-{[5,7-bis(methyloxy)-4-quinazolinyl]amino}-4-fluoro-N-methylbenzenesulfonamide hydrochloride] the figure was 10 to 100 nM. The figure for `CNS(=O)(=O)c1ccc(Cl)c(Nc2ncnc3cc(OC)cc(OC)c23)c1` [Example 39, 3-{[5,7-bis(methyloxy)-4-quinazolinyl]amino}-4-chloro-N-methylbenzenesulfonamide hydrochloride] is 10 to 100 nM. The figure for `CNS(=O)(=O)c1ccc(N2CCOCC2)c(Nc2ncnc3cc(OC)cc(OC)c23)c1` [Example 40, 3-{[5,7-bis(methyloxy)-4-quinazolinyl]amino}-N-methyl-4-(4-morpholinyl) benzenesulfonamide hydrochloride] is 10 to 100 nM; for `CCOc1cc2c(Nc3cc(S(=O)(=O)NC)ccc3OCC(F)(F)F)ncnc2cc1OC` [Example 42, 3-{[6-(ethyloxy)-7-(methyloxy)-4-quinazolinyl]amino}-N-methyl-4-[(2,2,2-trifluoroethyl)oxy] benzenesulfonamide hydrochloride] it is 10 to 100 nM.

Regarding `CNS(=O)(=O)c1ccc(OCC(F)(F)F)c(Nc2ncnc3cc(OC)c(OC(C)C)cc23)c1` [Example 44, N-methyl-3-{[6-[(1-methylethyl)oxy]-7-(methyloxy)-4-quinazolinyl]amino}-4-[(2,2,2-trifluoroethyl)oxy] benzenesulfonamide hydrochloride], the IC50 is 10 to 100 nM. The figure for `CNS(=O)(=O)c1ccc(OCC(F)(F)F)c(Nc2ncnc3cc(OCCCCl)ccc23)c1` [Example 45, 3-({7-[(3-chloropropyl)oxy]-4-quinazolinyl}amino)-N-methyl-4-[(2,2,2-trifluoroethyl)oxy] benzenesulfonamide] is 10 to 100 nM; for `CCOc1cc(OC)cc2ncnc(Nc3cc(S(=O)(=O)NC)ccc3OCC(F)(F)F)c12` [Example 46, 3-{[5-(ethyloxy)-7-(methyloxy)-4-quinazolinyl]amino}-N-methyl-4-[(2,2,2-trifluoroethyl)oxy] benzenesulfonamide] it is 1 to 10 nM; for `CNS(=O)(=O)c1ccc(OCC(F)(F)F)c(Nc2ncnc3cc(OC)cc(OC(C)C)c23)c1` [Example 47, N-methyl-3-{[5-[(1-methylethyl)oxy]-7-(methyloxy)-4-quinazolinyl]amino}-4-[(2,2,2-trifluoroethyl)oxy] benzenesulfonamide] it is 10 to 100 nM. With `CNS(=O)(=O)c1ccc(OCC(F)(F)F)c(Nc2ncnc3cc(OC)c(OC)c(OC)c23)c1` [Example 48, N-methyl-4-[(2,2,2-trifluoroethyl)oxy]-3-{[5,6,7-tris(methyloxy)-4-quinazolinyl]amino}benzene sulfonamide hydrochloride] the figure was 1 to 10 nM.

The record behind these values is patent publication US8859571B2, “Quinazoline compounds” (GlaxoSmithKline LLC, priority 2009, dated 2014).
